Columns and labels:
Assay in all cases: relative viability (nuclei count vs DMSO), 5 days (fraction); higher = more cells survive
COR-L 105 = tested on: COR-L 105
How it was run: (§1)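 Relative viability divides the nuclei count in treated wells by that in vehicle wells. Lung cancer cell lines were seeded in 1536-well plates, dosed by pin tool the next day, and fixed and stained after 5 days in one step with final 0.05% Triton X-100, 1% formaldehyde and 1 ug/ml Hoechst. Dosing was a single drug or a fixed anchor-drug dose plus five library-drug doses (not always all listed) in √10 steps, and values are medians of duplicate plates imaged at 4×.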

LCLC-103H = tested on: LCLC-103H
How it was run: as §1

LK-2 = tested on: LK-2
How it was run: as §1

NCI-H1355 = tested on: NCI-H1355
How it was run: as §1

NCI-H1623 = tested on: NCI-H1623
How it was run: as §1

NCI-H1666 = tested on: NCI-H1666
How it was run: as §1

NCI-H520 = tested on: NCI-H520
How it was run: as §1

NCI-H522 = tested on: NCI-H522
How it was run: as §1

A549 = tested on: A549
How it was run: as §1

Calu-6 = tested on: Calu-6
How it was run: as §1

EBC-1 = tested on: EBC-1
How it was run: as §1

IA-LM = tested on: IA-LM
How it was run: as §1

NCI-H1299 = tested on: NCI-H1299
How it was run: as §1

NCI-H1648 = tested on: NCI-H1648
How it was run: as §1

NCI-H1703 = tested on: NCI-H1703
How it was run: as §1

CC(=O)O[C@@]12CO[C@@H]1C[C@H](O)[C@@]1(C)C(=O)[C@H](O)C3=C(C)[C@@H](OC(=O)[C@H](O)[C@@H](NC(=O)OC(C)(C)C)c4ccccc4)C[C@@](O)([C@@H](OC(=O)c4ccccc4)[C@H]21)C3(C)C [Docetaxel] + CCNC(=O)c1noc(-c2cc(C(C)C)c(O)cc2O)c1-c1ccc(CN2CCOCC2)cc1 [Luminespib] (partner 0.01 µM)
relative viability (COR-L 105; first compound 0.0002 µM): 0.99 | relative viability (COR-L 105; first compound 0.000632 µM): 0.713 | relative viability (COR-L 105; first compound 0.002 µM): 0.531 | relative viability (COR-L 105; first compound 0.006325 µM): 0.595 | relative viability (COR-L 105; first compound 0.02 µM): 0.305 | relative viability (LCLC-103H; first compound 0.0002 µM): 0.885 | relative viability (LCLC-103H; first compound 0.000632 µM): 0.835 | relative viability (LCLC-103H; first compound 0.002 µM): 0.498 | relative viability (LCLC-103H; first compound 0.006325 µM): 0.443 | relative viability (LCLC-103H; first compound 0.02 µM): 0.218 | relative viability (LK-2; first compound 0.0002 µM): 0.193 | relative viability (LK-2; first compound 0.000632 µM): 0.177 | relative viability (LK-2; first compound 0.002 µM): 0.157 | relative viability (LK-2; first compound 0.006325 µM): 0.164 | relative viability (LK-2; first compound 0.02 µM): 0.168 | relative viability (NCI-H1355; first compound 0.0002 µM): 0.784 | relative viability (NCI-H1355; first compound 0.000632 µM): 0.66 | relative viability (NCI-H1355; first compound 0.002 µM): 0.599 | relative viability (NCI-H1355; first compound 0.006325 µM): 0.255 | relative viability (NCI-H1355; first compound 0.02 µM): 0.194 | relative viability (NCI-H1623; first compound 0.0002 µM): 0.543 | relative viability (NCI-H1623; first compound 0.000632 µM): 0.405 | relative viability (NCI-H1623; first compound 0.002 µM): 0.455 | relative viability (NCI-H1623; first compound 0.006325 µM): 0.353 | relative viability (NCI-H1623; first compound 0.02 µM): 0.281 | relative viability (NCI-H1666; first compound 0.0002 µM): 0.943 | relative viability (NCI-H1666; first compound 0.000632 µM): 0.776 | relative viability (NCI-H1666; first compound 0.002 µM): 0.623 | relative viability (NCI-H1666; first compound 0.006325 µM): 0.512 | relative viability (NCI-H1666; first compound 0.02 µM): 0.374 | relative viability (NCI-H520; first compound 0.000632 µM): 0.23 | relative viability (NCI-H520; first compound 0.002 µM): 0.233 | relative viability (NCI-H520; first compound 0.006325 µM): 0.259 | relative viability (NCI-H520; first compound 0.02 µM): 0.207 | relative viability (NCI-H522; first compound 0.0002 µM): 1.19 | relative viability (NCI-H522; first compound 0.000632 µM): 1.02 | relative viability (NCI-H522; first compound 0.002 µM): 0.703 | relative viability (NCI-H522; first compound 0.006325 µM): 0.419 | relative viability (NCI-H522; first compound 0.02 µM): 0.357

COc1cc2nccc(Oc3ccc(NC(=O)Nc4cc(C)on4)c(Cl)c3)c2cc1OC [Tivozanib] + O=C(c1cc(Cc2n[nH]c(=O)c3ccccc23)ccc1F)N1CCN(C(=O)C2CC2)CC1 [Olaparib] (partner 8 µM)
relative viability (A549; first compound 0.005 µM): 0.349 | relative viability (A549; first compound 0.01581 µM): 0.456 | relative viability (A549; first compound 0.05 µM): 0.398 | relative viability (A549; first compound 0.1581 µM): 0.0913 | relative viability (A549; first compound 0.5 µM): 0.246 | relative viability (COR-L 105; first compound 0.005 µM): 0.629 | relative viability (COR-L 105; first compound 0.01581 µM): 0.558 | relative viability (COR-L 105; first compound 0.05 µM): 0.773 | relative viability (COR-L 105; first compound 0.1581 µM): 0.713 | relative viability (COR-L 105; first compound 0.5 µM): 0.705 | relative viability (Calu-6; first compound 0.005 µM): 0.581 | relative viability (Calu-6; first compound 0.01581 µM): 0.618 | relative viability (Calu-6; first compound 0.05 µM): 0.522 | relative viability (Calu-6; first compound 0.1581 µM): 0.671 | relative viability (Calu-6; first compound 0.5 µM): 0.519 | relative viability (EBC-1; first compound 0.005 µM): 0.642 | relative viability (EBC-1; first compound 0.01581 µM): 0.704 | relative viability (EBC-1; first compound 0.05 µM): 0.708 | relative viability (EBC-1; first compound 0.1581 µM): 0.777 | relative viability (EBC-1; first compound 0.5 µM): 0.736 | relative viability (IA-LM; first compound 0.005 µM): 0.867 | relative viability (IA-LM; first compound 0.01581 µM): 0.891 | relative viability (IA-LM; first compound 0.05 µM): 0.857 | relative viability (IA-LM; first compound 0.1581 µM): 0.697 | relative viability (IA-LM; first compound 0.5 µM): 0.672 | relative viability (LCLC-103H; first compound 0.005 µM): 0.785 | relative viability (LCLC-103H; first compound 0.01581 µM): 0.783 | relative viability (LCLC-103H; first compound 0.05 µM): 0.734 | relative viability (LCLC-103H; first compound 0.1581 µM): 0.791 | relative viability (LCLC-103H; first compound 0.5 µM): 0.853 | relative viability (LK-2; first compound 0.005 µM): 0.67 | relative viability (LK-2; first compound 0.01581 µM): 0.759 | relative viability (LK-2; first compound 0.05 µM): 0.691 | relative viability (LK-2; first compound 0.1581 µM): 0.573 | relative viability (LK-2; first compound 0.5 µM): 0.613 | relative viability (NCI-H1299; first compound 0.005 µM): 0.969 | relative viability (NCI-H1299; first compound 0.01581 µM): 1.01 | relative viability (NCI-H1299; first compound 0.05 µM): 0.962 | relative viability (NCI-H1299; first compound 0.1581 µM): 0.965 | relative viability (NCI-H1299; first compound 0.5 µM): 0.844 | relative viability (NCI-H1355; first compound 0.005 µM): 0.732 | relative viability (NCI-H1355; first compound 0.01581 µM): 0.755 | relative viability (NCI-H1355; first compound 0.05 µM): 0.765 | relative viability (NCI-H1355; first compound 0.1581 µM): 0.672 | relative viability (NCI-H1355; first compound 0.5 µM): 0.753 | relative viability (NCI-H1648; first compound 0.005 µM): 1 | relative viability (NCI-H1648; first compound 0.01581 µM): 0.736 | relative viability (NCI-H1648; first compound 0.05 µM): 0.799 | relative viability (NCI-H1648; first compound 0.1581 µM): 1.25 | relative viability (NCI-H1648; first compound 0.5 µM): 0.713 | relative viability (NCI-H1666; first compound 0.005 µM): 0.777 | relative viability (NCI-H1666; first compound 0.01581 µM): 0.713 | relative viability (NCI-H1666; first compound 0.05 µM): 0.739 | relative viability (NCI-H1666; first compound 0.1581 µM): 0.802 | relative viability (NCI-H1666; first compound 0.5 µM): 0.719 | relative viability (NCI-H1703; first compound 0.005 µM): 0.216 | relative viability (NCI-H1703; first compound 0.01581 µM): 0.256 | relative viability (NCI-H1703; first compound 0.05 µM): 0.241 | relative viability (NCI-H1703; first compound 0.1581 µM): 0.177 | relative viability (NCI-H1703; first compound 0.5 µM): 0.146 | relative viability (NCI-H520; first compound 0.005 µM): 0.42 | relative viability (NCI-H520; first compound 0.01581 µM): 0.354 | relative viability (NCI-H520; first compound 0.05 µM): 0.334 | relative viability (NCI-H520; first compound 0.1581 µM): 0.315 | relative viability (NCI-H520; first compound 0.5 µM): 0.301 | relative viability (NCI-H522; first compound 0.005 µM): 0.627 | relative viability (NCI-H522; first compound 0.01581 µM): 0.635 | relative viability (NCI-H522; first compound 0.05 µM): 0.651 | relative viability (NCI-H522; first compound 0.1581 µM): 0.591 | relative viability (NCI-H522; first compound 0.5 µM): 0.512
